Experimental data published in paper PMC5653735, “Comparison of the oxidation of carcinogenic aristolochic acid I and II by microsomal cytochromes P450 in vitro: experimental and theoretical approaches” (Monatshefte Fur Chemie, 2017).

Molecular target: T1, CYP3A1 (Rattus norvegicus, UniProt P04800)
T1 construct: recombinant rat CYP3A1 in Supersomes (microsomes of baculovirus-transfected insect cells); with NADPH:CYP oxidoreductase (POR) and/or cytochrome b5
T1 sequence (P04800 1-504): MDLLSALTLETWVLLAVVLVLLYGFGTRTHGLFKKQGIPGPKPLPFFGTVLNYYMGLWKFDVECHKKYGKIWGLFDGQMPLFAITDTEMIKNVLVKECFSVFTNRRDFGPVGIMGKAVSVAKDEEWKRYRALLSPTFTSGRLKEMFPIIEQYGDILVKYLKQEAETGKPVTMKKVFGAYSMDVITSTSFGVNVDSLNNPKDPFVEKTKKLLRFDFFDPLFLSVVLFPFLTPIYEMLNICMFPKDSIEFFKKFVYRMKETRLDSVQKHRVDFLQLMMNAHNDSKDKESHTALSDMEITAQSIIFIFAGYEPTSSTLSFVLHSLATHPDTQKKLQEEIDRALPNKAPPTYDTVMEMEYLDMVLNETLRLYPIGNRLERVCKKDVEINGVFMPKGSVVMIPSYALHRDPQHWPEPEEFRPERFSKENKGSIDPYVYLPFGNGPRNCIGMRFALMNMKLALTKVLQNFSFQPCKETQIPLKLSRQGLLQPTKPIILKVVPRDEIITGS
Assay: HPLC of AAIa formed from AAII by recombinant CYP in insect-cell microsomes
Type: cell-based

## O=C(O)c1cc2c(c3c1c([N+](=O)[O-])cc1ccccc13)OCO2 [AAII, 6-nitrophenanthro[3,4-d]-1,3-dioxole-5-carboxylic acid]
  HPLC of AAIa formed from AAII by recombinant CYP in insect-cell microsomes: only rat CYP of the 3A subfamily, CYP3A1, but not CYP3A2, was capable of oxidizing AAII to AAIa
